From patent US20170029866A1 (Ameritox, Ltd, priority 2015, published 2017)

Tests used:
[1] = Haldol in urine samples after hydrolysis with a betaglucuronidase enzyme; assay type: in vivo, human
[2] = Haldol in urine samples before hydrolysis; assay type: in vivo, human; details: Without Hydrolysis; summary of Table 1, N 151
[3] = With hydrolysis, summary of Table 1, N 151

Avg [1, 3]: 982.5
Max [1, 3]: 16805.6
Min [1, 3]: 0.0
amount of Haldol determined in urine samples post hydrolysis versus before ([1]; human urine, betaglucuronidase hydrolysis): increased post hydrolysis
Avg [2]: 30.7
Max [2]: 414.0
Min [2]: 0.0
SMILES: O=C(CCCN1CCC(O)(c2ccc(Cl)cc2)CC1)c1ccc(F)cc1 [Haldol, Haloperidol]
